The nature of series [1]: Plasma protein binding in human by LC-MS/MS analysis. The format is ADME, cell-free. The settings on record: read-out: PPB (converted).
Series [2] relates to Mus musculus. The series can be described thus: Antipsychotic activity in CD-1 mouse assessed as inhibition of amphetamine-stimulated locomotor activity at 5 mg/kg, ip administered 30 mins prior to amphetamine stimulation and measured after 30 mins. It counts as functional, organism-based. The settings on record: time 60.0 min.
For series [3], the target named is 5-hydroxytryptamine receptor 6 (Homo sapiens) (UniProt P50406). Kind of series: Inhibition of 5-HT6 receptor (unknown origin). The settings on record: concentration not given here.
Series [4] is described as follows: Metabolic stability in human liver microsomes assessed as intrinsic clearance. On the technique in general: Liver microsomes are vesicles of endoplasmic reticulum, rich in cytochrome P450 enzymes.
Series [5] can be described thus: Aqueous solubility of compound in simulated gastric fluid by UV absorbance based analysis. The format is physicochemical.
Series [6] in a line: Permeability of the compound across apical to basolateral side in human Caco-2 cells at pH 7.4. It counts as ADME, cell-based. The settings on record: Caco-2, pH 7.4, read-out: Papp. (In general: Caco-2 monolayers are a common model of the intestinal barrier.)
Series [7] can be described thus: Tmax in mouse striatum at 0.625 mg/kg, ip by LC/ESI-MS/MS analysis. The format is ADME, organism-based.
Series [8] can be described thus: Ratio of drug concentration in frontal cortex to plasma in mouse at 0.625 mg/kg, ip by LC/ESI-MS/MS analysis. The format is ADME, organism-based. The note with it: frontal cortex and plasma.
Series [9] in a line: Permeability of the compound across apical to basolateral side in human Caco-2 cells at pH 6.5. The format is ADME, cell-based. The settings on record: Caco-2, pH 6.5, read-out: Papp.
Series [10] in a line: Tmax in mouse hippocampus at 0.625 mg/kg, ip by LC/ESI-MS/MS analysis. It counts as ADME, organism-based.
Series [11] addresses T1, 5-hydroxytryptamine receptor 1A (Homo sapiens, UniProt P08908).
T1 sequence (P08908 whole entry): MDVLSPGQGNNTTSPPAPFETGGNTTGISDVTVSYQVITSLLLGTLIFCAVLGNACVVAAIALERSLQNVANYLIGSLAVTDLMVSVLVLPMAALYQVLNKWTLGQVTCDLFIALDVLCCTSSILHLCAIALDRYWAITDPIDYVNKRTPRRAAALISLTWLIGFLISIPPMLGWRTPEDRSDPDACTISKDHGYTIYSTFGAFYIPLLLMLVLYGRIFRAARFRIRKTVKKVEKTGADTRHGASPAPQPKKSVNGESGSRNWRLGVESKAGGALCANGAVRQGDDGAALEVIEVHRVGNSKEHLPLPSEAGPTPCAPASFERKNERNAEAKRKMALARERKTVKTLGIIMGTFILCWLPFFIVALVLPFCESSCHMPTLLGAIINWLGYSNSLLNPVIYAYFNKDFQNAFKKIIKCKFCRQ
Kind of series: Displacement of [3H]-[…] from human 5-HT1A receptor expressed in CHO-K1 cells membrane by scintillation counter analysis. It counts as cell membranes. (In general: In a radioligand displacement assay an active substance lowers the binding of a labelled ligand.)

Series [12] is described as follows: Aqueous solubility of compound in simulated intestinal fluid by UV absorbance based analysis. It counts as physicochemical.
Series [13] concerns the target T2, Adrenergic receptor alpha-1 (Homo sapiens, UniProt P35348+P25100+P35368).
T2 sequence (P35348 whole entry): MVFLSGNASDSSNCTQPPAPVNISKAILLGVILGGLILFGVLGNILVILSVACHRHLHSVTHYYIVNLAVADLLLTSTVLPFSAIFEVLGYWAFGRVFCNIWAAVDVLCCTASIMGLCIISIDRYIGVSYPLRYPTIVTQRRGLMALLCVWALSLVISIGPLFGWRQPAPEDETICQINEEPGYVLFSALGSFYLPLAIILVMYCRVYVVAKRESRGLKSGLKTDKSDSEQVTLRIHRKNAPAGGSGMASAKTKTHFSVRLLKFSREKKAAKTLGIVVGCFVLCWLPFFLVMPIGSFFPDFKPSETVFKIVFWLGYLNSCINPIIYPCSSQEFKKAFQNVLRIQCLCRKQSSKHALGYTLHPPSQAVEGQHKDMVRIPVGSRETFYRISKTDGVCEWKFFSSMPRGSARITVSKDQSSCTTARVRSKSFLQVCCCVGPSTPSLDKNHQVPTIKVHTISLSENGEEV
T2 sequence (P25100 whole entry): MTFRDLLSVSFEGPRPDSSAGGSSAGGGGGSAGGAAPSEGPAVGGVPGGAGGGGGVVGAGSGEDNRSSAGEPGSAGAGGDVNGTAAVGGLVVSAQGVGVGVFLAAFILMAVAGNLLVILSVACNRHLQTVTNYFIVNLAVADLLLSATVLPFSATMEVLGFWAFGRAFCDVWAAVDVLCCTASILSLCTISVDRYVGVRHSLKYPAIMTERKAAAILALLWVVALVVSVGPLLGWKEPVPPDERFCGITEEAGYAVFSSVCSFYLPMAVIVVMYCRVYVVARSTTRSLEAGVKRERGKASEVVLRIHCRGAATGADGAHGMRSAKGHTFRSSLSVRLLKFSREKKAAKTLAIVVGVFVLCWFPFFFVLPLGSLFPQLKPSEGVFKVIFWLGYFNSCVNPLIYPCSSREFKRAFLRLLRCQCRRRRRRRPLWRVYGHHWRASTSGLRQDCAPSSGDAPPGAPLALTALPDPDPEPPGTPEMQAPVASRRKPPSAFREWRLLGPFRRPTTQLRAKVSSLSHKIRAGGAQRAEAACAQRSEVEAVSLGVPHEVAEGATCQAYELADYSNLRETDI
T2 sequence (P35368 whole entry): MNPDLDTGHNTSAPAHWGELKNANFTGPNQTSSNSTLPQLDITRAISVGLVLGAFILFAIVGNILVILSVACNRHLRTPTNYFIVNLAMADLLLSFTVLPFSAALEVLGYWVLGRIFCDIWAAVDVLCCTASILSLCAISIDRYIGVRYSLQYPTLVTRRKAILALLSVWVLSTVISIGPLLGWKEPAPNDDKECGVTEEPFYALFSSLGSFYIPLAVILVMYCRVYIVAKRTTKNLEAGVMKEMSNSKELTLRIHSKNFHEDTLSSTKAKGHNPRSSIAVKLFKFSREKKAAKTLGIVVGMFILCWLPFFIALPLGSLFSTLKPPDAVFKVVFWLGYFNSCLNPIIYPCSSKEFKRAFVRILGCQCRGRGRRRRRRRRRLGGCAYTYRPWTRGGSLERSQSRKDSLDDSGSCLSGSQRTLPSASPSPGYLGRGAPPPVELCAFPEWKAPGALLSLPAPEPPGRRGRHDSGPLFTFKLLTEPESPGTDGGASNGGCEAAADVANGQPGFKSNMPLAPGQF
The series can be described thus: Binding affinity to adrenergic alpha 1 receptor (unknown origin). It counts as protein assay.

Series [14] deals with cAMP and cAMP-inhibited cGMP 3',5'-cyclic phosphodiesterase 10A (Homo sapiens, UniProt Q9Y233). Kind of series: Inhibition of PDE10A (unknown origin) preincubated for 20 mins followed by substrate addition and measured after 1 hr by PEDlight AMP detection reagent based luminescence assay.
Series [15] in a line: Efflux ratio of apparent permeability across basolateral to apical membrane to apical to basolateral membrane in human Caco-2 cells. It counts as ADME, cell-based.
Series [16] deals with Mus musculus. Kind of series: Antidepressant activity in Swiss albino mouse assessed as reduction in immobility time at 0.625 mg/kg, ip measured for last 4 mins of 6 mins test by forced swim test. The note with it: 0.1 h. It counts as functional. Also on record: scale not given: the % may be the effect or the level left.
A short description of series [17]: AUC(0 to t) in mouse hippocampus at 0.625 mg/kg, ip by LC/ESI-MS/MS analysis. It counts as ADME, organism-based. Also on record: dose 0.625 mg/kg, route ip.
A short description of series [18]: Cmax in mouse plasma at 0.625 mg/kg, ip measured up to 480 mins by LC/ESI-MS/MS analysis. The format is ADME, organism-based. Also on record: time < 480 min, dose 0.625 mg/kg, route ip.

≈ marks a conversion by molar mass, not a printed value. Calls of active or inactive are those of the source. The rule behind the calls is not given here.

Chain of cAMP and cAMP-inhibited cGMP 3',5'-cyclic phosphodiesterase 10A (Q9Y233 whole entry): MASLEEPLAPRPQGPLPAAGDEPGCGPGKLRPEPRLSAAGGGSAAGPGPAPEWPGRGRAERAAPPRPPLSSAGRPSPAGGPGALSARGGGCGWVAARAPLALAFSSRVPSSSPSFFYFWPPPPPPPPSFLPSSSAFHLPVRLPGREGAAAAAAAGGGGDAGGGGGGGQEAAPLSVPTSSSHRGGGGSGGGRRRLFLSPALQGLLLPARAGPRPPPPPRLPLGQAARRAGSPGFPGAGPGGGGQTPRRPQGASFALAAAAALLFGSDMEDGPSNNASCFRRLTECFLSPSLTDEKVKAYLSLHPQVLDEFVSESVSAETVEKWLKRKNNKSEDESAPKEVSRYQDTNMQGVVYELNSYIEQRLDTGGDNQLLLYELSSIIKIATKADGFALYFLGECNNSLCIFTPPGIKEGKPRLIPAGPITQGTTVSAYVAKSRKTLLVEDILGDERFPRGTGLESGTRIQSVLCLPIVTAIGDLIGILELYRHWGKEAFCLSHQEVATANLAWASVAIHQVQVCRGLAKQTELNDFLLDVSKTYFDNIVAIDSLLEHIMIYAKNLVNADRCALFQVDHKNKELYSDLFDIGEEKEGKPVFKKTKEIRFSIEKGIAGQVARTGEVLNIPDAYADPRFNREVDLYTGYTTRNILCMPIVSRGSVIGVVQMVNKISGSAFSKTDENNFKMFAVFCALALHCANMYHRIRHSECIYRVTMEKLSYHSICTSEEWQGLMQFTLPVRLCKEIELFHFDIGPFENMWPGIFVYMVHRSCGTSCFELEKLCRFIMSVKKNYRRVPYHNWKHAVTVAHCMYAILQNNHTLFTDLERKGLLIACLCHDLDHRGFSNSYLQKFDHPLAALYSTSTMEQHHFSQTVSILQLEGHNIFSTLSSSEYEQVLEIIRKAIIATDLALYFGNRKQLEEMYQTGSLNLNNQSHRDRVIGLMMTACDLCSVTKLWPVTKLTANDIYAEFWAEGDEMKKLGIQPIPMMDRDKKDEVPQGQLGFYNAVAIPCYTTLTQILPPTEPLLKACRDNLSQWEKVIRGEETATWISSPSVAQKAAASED
Chain of 5-hydroxytryptamine receptor 6 (Homo sapiens) (P50406 whole entry): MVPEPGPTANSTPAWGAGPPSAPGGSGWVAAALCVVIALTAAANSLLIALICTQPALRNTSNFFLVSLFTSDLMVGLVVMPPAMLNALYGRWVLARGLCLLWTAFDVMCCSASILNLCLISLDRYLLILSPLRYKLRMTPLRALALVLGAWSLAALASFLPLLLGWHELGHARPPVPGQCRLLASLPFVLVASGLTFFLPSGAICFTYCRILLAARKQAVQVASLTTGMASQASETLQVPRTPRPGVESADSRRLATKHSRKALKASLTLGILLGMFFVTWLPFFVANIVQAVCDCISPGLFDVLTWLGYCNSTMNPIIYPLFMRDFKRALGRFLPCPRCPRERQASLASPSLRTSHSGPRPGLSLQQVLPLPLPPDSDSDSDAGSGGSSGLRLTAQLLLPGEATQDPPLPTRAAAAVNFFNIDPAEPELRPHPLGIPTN

`COc1cc2ncnc(N3CCC(CN4CCN(c5ccc(Cl)cc5)CC4)C3)c2cc1OC` (stereo not drawn): the fraction unbound in series [1] was 0.018. The result in the series with Mus musculus [2] was Active. This compound also displayed an inhibition in series [3] of 8%. Moreover, the intrinsic clearance (microsomal CLint) in series [4] was 75.8 µL/min/mg. For the same compound, the solubility in [5] is 196 µM (≈ 91.9 µg/mL); in [12], 181 µM (≈ 84.7 µg/mL). Besides, the Papp A→B in series [6] came out at 0.05 ×10⁻⁶ cm/s; in series [9], 0.26 ×10⁻⁶ cm/s. In addition, the Tmax in series [7] and in [10] was 30 min each time. Also, the Kp in series [8] was 149. The Ki in [11] is 0.363 µM. Besides, in [13], the pKi came to 6.11. Moreover, the concentration for half-maximal inhibition (IC50) in series [14] is 1.7 µM. Moreover, the efflux ratio in series [15] came out at 0.19. The Activity in the series with Mus musculus [16] stood at 50%. The AUC(0-t) in series [17] was 1040 ng·h/mL. Also, in series [18], the Cmax turned out to be 4.1 ng/mL.

What is called inhibition is how much of the control response was suppressed. As usually defined, the microsomal CLint is a measure of how fast metabolising enzymes remove a compound, apart from limits set by blood flow. For orientation: solubility means the concentration that dissolves in the medium under given conditions. In general, Tmax refers to the time from dosing to the highest level. The term Kp denotes tissue or fluid exposure divided by exposure in the circulation. The term Ki denotes the dissociation constant of the complex between target and ligand, obtained from inhibition or displacement. As usually defined, the pKi is −log10 of the Ki, conventionally taken in molar units. Broadly, the IC50 is the concentration needed to halve the response being measured. The efflux ratio is the permeability from basolateral to apical divided by that in the opposite direction, in the common usage. In general, AUC(0-t) refers to exposure summed from dosing to a finite time, without extrapolation to infinity. One may read the Cmax as the highest concentration seen after dosing.

(Values after ChEMBL document CHEMBL5143617 (Eur J Med Chem, 2022).)
